Results reported in patent publication US20120238549A1, “Nuclear Hormone Receptor Modulators” (ABBOTT LABORATORIES, priority 2011, published 2012).

Each molecule was assayed against T1, Glucocorticoid Receptor (GR) (Homo sapiens, UniProt P04150) (assay: GR Florescence Polarization Assay (PolarScreen Glucocorticoid Receptor Competitor Assay, Red)). Conditions: Fluorescense polarization binding ranges; competition with fluorescent glucocorticoid, incubated overnight at 4° C.
T1 construct: purchased Invitrogen P2893
T1 sequence (P04150 1-777): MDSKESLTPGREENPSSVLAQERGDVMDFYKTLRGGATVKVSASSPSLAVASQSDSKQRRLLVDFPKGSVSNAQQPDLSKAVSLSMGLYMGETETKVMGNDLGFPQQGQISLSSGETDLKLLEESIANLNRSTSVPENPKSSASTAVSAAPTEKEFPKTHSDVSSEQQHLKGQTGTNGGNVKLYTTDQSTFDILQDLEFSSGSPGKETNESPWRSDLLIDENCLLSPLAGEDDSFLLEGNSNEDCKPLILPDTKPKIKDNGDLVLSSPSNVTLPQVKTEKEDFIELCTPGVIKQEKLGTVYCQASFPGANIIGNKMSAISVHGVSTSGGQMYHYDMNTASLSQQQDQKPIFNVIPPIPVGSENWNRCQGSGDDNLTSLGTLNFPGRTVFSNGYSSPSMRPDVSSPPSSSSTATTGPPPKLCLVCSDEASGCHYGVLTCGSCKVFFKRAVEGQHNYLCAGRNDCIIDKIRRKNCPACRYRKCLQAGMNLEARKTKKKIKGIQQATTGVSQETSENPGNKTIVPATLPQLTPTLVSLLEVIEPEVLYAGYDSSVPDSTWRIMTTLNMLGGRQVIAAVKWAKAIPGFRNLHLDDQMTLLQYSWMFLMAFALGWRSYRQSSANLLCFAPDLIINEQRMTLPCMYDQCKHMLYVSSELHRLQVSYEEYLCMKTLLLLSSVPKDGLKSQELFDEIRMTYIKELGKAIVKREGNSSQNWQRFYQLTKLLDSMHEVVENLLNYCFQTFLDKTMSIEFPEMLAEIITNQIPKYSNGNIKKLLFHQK
Summary of the method: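 Competitive fluorescence polarization using fluorescent glucocorticoid tracer and human GR in kit buffer. Compounds serially diluted 1:4 in DMSO, incubated with tracer and GR overnight at 4 °C before polarization read.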

| IC50 [nM] | Molecule |
| --- | --- |
| < 100 | CCC[C@@]1(O)CC[C@@]2(CC)c3ccc(C(=O)Nc4ccccc4Cl)cc3CCC[C@H]2C1 [Example 151, (7aS,9R,11aR)-11a-Ethyl-9-hydroxy-9-propyl-6,7,7a,8,9,10,11,11a-octahydro-5H-dibenzo[a,c]cycloheptene-3-carboxylic acid (2-chloro-phenyl)-amide] |
| < 100 | (3R,4aR,11bR)-11b-benzyl-3-methyl-2,3,4,4a,5,6,7,11b-octahydro-1H-dibenzo[a,c]cycloheptene-3,9-diol; compound with (3S,4aS,11bS)-11b-benzyl-3-methyl-2,3,4,4a,5,6,7,11b-octahydro-1H-dibenzo[a,c]cycloheptene-3,9-diol [Example 7] |

| Molecule | IC50 [nM] |
| --- | --- |
| (3R,4aS,11bS)-11b-Benzyl-3-methyl-2,3,4,4a,5,6,7,11b-octahydro-1H-dibenzo[a,c]cycloheptene-3,9-diol; compound with (3S,4aR,11bR)-11b-benzyl-3-methyl-2,3,4,4a,5,6,7,11b-octahydro-1H-dibenzo[a,c]cycloheptene-3,9-diol [Example 6] | < 100 |
